According to patent US5789387A (priority 1996, dated 1998):
“Also recorded” adds a separate entry of the source.

How the values were obtained:
Coccidioides immitis = conditions: in vitro, literature; cited from earlier work
Candida albicans [1] = conditions: in vitro; prolonged exposure; literature; cited from earlier work
[2] = tested on: Candida albicans strain B311; experiment: quantitative recovery of viable yeast from kidneys in rat model of systemic candidiasis, continuous intravenous infusion; type: in vivo; conditions: for decrease in viable yeast per gram of tissue / Geometric mean log10 CFU/gm ± S.E.M. (kidney): 96 h; for Geometric mean log10 CFU/gm ± S.E.M. (kidney): inoculum 1×10^6 cfu/rat
Experimental: (§1) Candida albicans strain B311 (originally obtained from H. Hasenclever, National Institutes of Health, Bethesda, Md.) was employed in the following examples. For growth of yeast inocula, frozen culture aliquots were inoculated into 2% glucose, 1% yeast extract broth and grown at 35° C. with shaking until the culture entered the early log phase of growth. Yeast were collected by centrifugation, washed, and adjusted to the appropriate concentration in sterile phosphate-buffered saline (PBS).
A rat model of systemic candidiasis was used to assess the effect of nikkomycin Z in vivo. […] The inoculum and the subsequent drug treatment was administered via an indwelling catheter placed in the jugular vein that was "tunneled" out the back and placed inside a protective, flexible, metal sheath. For both experiments, therapy was initiated 12-14 h after infection with nikkomycin Z (formulated in a vehicle of 2% dimethylsulfoxide (DMSO)/ 98% dextrose (5%)) administered continuously at 330 mg/kg/day; control animals were treated with vehicle. In the first experiment, animals were treated continuously for 72 h. In the second experiment, animals were treated continuously for 96 h. Drug and vehicle were administered continuously at a volume of one ml per hour. At 7 or 9 h after cessation of treatment, respectively, all animals were euthanized for the removal of kidneys, which were cultured for the quantitative recovery of viable yeast. From each animal, the two kidneys were placed into tared, sterile tubes (one tube per animal, i.e., two kidneys per tube) containing ten ml of sterile PBS. The kidneys were then weighed and the tube contents homogenized. Organ homogenates were diluted in serial fashion and cultured on Sabourauds agar plates containing 50 μg/ml chloramphenicol for the quantitative recovery of viable yeast. The plates were incubated overnight at room temperature and colonies enumerated. Calculations were made to determine the log10 cfu's per gram of tissue for each animal.
Experiments similar to those described above were performed to determine the effectiveness of low doses of Nikkomycin Z in reducing the yeast load in organs of infected animals in the rat model of systemic candidiasis. Experimental details such as yeast used, growth conditions, rats used, and methods of inoculation and drug delivery were as described above in Sections 6.1 and 6.2. Inoculum levels were 1×10^6 cfu/rat. Therapy was initiated 14 h after yeast infection and nikkomycin Z was administered continuously at either 33 or 100 mg/kg/day for a total of 96 h; control animals were treated with vehicle. Test solutions were delivered from syringes using infusion pumps; syringes and solutions were changed daily. After cessation of treatment, all animals were euthanized for the removal of kidneys, which were cultured for the quantitative recovery of viable yeast. Organ removal and culture were done as above. Organ homogenates were cultured on Sabourauds agar and incubated overnight for the enumeration of yeasts as above.

Candida albicans B311 = experiment: prevention of mortality in rats infected with lethal doses of Candida albicans, continuous intravenous infusion; type: in vivo, rat infected with Candida albicans B311
Experimental: as §1
Using methods similar to those described above, rats were infected intravenously with a higher inoculum level; i.e., 3.2×10^6 cfu/rat, to induce mortalities. Fourteen hours after infection, treatment by continuous infusion was initiated with nikkomycin Z administered continuously at 330 mg/kg/day; control animals were treated with vehicle. Treatment was continued for 96 h, then animals were held for a total of 28 days for observation of mortalities.
Experiments similar to those described above in this Section were performed to determine the effect of low doses of nikkomycin Z in preventing mortality in animals infected with Candida albicans. Using methods similar to those described above, rats were infected intravenously with 1.05×10^7 cfu/rat of C. albicans B311, a dose that would normally rapidly induce mortalities. The inoculum and the subsequent drug treatment was administered via an indwelling catheter placed in the jugular vein. For the experiment, therapy was initiated 14 h after infection with yeast and nikkomycin Z was administered continuously at 33 or 100 mg/kg/day; control animals were treated with vehicle. All animals were treated continuously for 96 h, with test solutions delivered from syringes using infusion pumps. Syringes and solutions were changed daily. Animals were held for a total of 30 days for observation of mortalities.

[3] = plasma levels after subcutaneous sustained release gel (PLURONIC F127) or single intravenous administration, HPLC; type: in vivo; conditions: rat, single intravenous administration, read-out: mean residence time (MRT), nikkomycin Z total compounds
[4] = plasma concentration of nikkomycin Z following continuous intravenous administration, HPLC/SPE; type: in vivo, rat (outbred male albino, strain S/A)
Experimental: The experimental animals were outbred male albino rats (strain S/A, Simonsen Laboratories, Gilroy, Calif.), 350-400 g average weight, housed one per cage, fed rodent chow and water ad libitum, and identified by ear tags. Rats receiving continuous intravenous administration of nikkomycin Z were cannulated in the left carotid artery and right jugular vein.
Continuous intravenous administration involved a 2 hour loading dose of 20 mg/kg/hour nikkomycin Z and then an infusion rate of 33 mg/kg/day over 24 hours. The formulation contained 1 mg/ml nikkomycin Z in sterile 5% dextrose. Blood samples of 1 ml were withdrawn at 0, 0.25, 0.5, 1, 2, 4, 6 and 12 h.
Nikkomycin Z was extracted from the plasma samples using solid phase extraction (SPE) columns. The SPE matrix was phenylboronate (PBA) which covalently binds nikkomycin Z at high pH. After washing with 20 mM sodium carbonate/bicarbonate alkaline buffer, nikkomycin Z was eluted from the extraction column with a 20 mM glycine solution at pH 1.2. Following a drying and reconstitution step, nikkomycin Z plasma concentration was determined using reverse phase HPLC. The plasma concentrations of nikkomycin Z derived from the HPLC analysis were plotted against time.

Candida albicans [5] = conditions: cited from earlier work
Candida albicans [6] = conditions: oral, 10-14 day period; cited from earlier work
C. albicans = conditions: subcutaneous, high concentrations; cited from earlier work
Candida = conditions: subcutaneous injections beginning one hour after inoculation; cited from earlier work
chitin synthase = conditions: in words; cited from earlier work
plants, fish, or mammals = conditions: under reasonable doses; cited from earlier work
chitin synthesis = conditions: subcutaneous, high concentrations; cited from earlier work
[7] = bolus intravenous once daily, up to 20 days

NC(=O)OC[C@H](O)[C@@H](O)[C@H](N)C(=O)N[C@H](C(=O)O)[C@H]1O[C@@H](n2cc(C(=O)O)c(=O)[nH]c2=O)[C@H](O)[C@@H]1O [polyoxin D]
concentration at which C. immitis is rapidly susceptible (Coccidioides immitis): 60 to 100 µM
effect on Candida cells (in words) (Candida albicans [1]): exhibited a phenomenon called "chaining". Although deformed, these cells were able to survive several replications, though ultimately they became sensitive to osmotic pressures and would lyse

C[C@@H]([C@H](N)C(=O)N[C@H](C(=O)O)[C@H]1O[C@@H](n2ccc(=O)[nH]c2=O)[C@H](O)[C@@H]1O)[C@H](O)c1ccc(O)cn1 [nikkomycin Z]
reduction of yeast load in organs (in words) ([2]; 33 mg/kg/day continuous infusion, 96 h (4 days)): sufficient to dramatically reduce the yeast load in organs of infected animals; also recorded: significantly reduce the yeast organ load
decrease in viable yeast per gram of tissue ([2]; 33 mg/kg/day): approximately 1 log10 units
Geometric mean log10 CFU/gm ± S.E.M. (kidney) ([2]; 33 mg/kg/day): 4.23 ± 0.15 log10 CFU/gm
decrease in viable yeast per gram of tissue ([2]; 100 mg/kg/day): ~2 log10 units
Geometric mean log10 CFU/gm ± S.E.M. (kidney) ([2]; 100 mg/kg/day): 3.48 ± 0.15 log10 CFU/gm
Geometric mean log10 CFU/gm ± S.E.M. (kidney), Exp. 1 ([2]; Exp. 1, 330 mg/kg/day continuous infusion over 72 h, inoculum 6.2×10^5 cfu/rat): 3.09 ± .16 log10 CFU/gm
Geometric mean log10 CFU/gm ± S.E.M. (kidney), Exp. 2 ([2]; Exp. 2, 330 mg/kg/day continuous infusion over 96 h, inoculum […]10^6 cfu/rat): 3.73 ± .05 log10 CFU/gm
survival (Candida albicans B311; 33 mg/kg/day continuous infusion 96 h, inoculum 1.05×10^7 cfu/rat, 30 days observation): all animals receiving nikkomycin Z at either 33 or 100 mg/kg/day by continuous infusion survived the entire observation period; also recorded: complete protection of rats against a lethal challenge with Candida albicans
survival (Candida albicans B311; 100 mg/kg/day continuous infusion 96 h, inoculum 1.05×10^7 cfu/rat, 30 days observation): all animals receiving nikkomycin Z at either 33 or 100 mg/kg/day by continuous infusion survived the entire observation period
survival (Candida albicans B311; 330 mg/kg/day continuous infusion 96 h, inoculum 3.2×10^6 cfu/rat, 28 days observation): all animals receiving nikkomycin Z by continuous infusion survived the entire observation period
MRT [3]: 12 min
steady state plasma concentration ([4]; infusion 33 mg/kg/day intravenous after loading dose, 33 mg/kg/day): about 170 ng/ml
Tmax ([4]; rat, plasma, 2 hour loading dose of 20 mg/kg/h, then 33 mg/kg/day intravenous): 60 min
Cmax ([4]; rat, plasma, 2 hour loading dose of 20 mg/kg/h, then 33 mg/kg/day intravenous, read-out: maximum plasma concentration): ~6600 ng/mL
concentration at which C. immitis is rapidly susceptible (Coccidioides immitis): 60 to 100 µM
efficacy as characterized by others (Candida albicans [5]; [7]): modest efficacy; also recorded: limited efficacy
mortality of infected mice (Candida albicans [5]; [7]): a delay in the onset of mortalities in infected mice; also recorded: essentially all mice died shortly after cessation of therapy
promotion of survival and reduction of fungal burden in kidneys (prior studies) (Candida albicans [5]; summary of earlier studies with reasonable delay between challenge and administration (oral, iv bolus, sc)): at best in a fungistatic fashion with only marginal activity in promoting survival and only limited ability to reduce the fungal burden in the kidneys
survival (Candida albicans [6]): animals ultimately succumbed to infection
numbers of yeasts in kidneys / efficacy (C. albicans): treatment did not result in any reduction in numbers of yeasts
protection against experimental candidiasis (Candida): some protection
inhibition of chitin synthase (chitin synthase): potent inhibitor
toxicity (plants, fish, or mammals): no toxicity against plants, fish, or mammals under reasonable doses
chitin synthesis in vivo (chitin synthesis): depress chitin synthesis in vivo
